Experiments:
[1] = MR visibility test of gelatin/DTPA[Gd(III)] coating on PE rod in saline and yogurt (Example 14); conditions: soaked in water for 12 hours before MRI test
Protocol: Samples having the above formulations were transferred to a glass tube and kept in a water bath at 35° C. A bare PE rod (5 cm in length) was then dipped into the solution, and then removed. The rod was then cooled to room temperature to allow chill-setting of the gelatin solution and to form the coating on the rod surface. The same procedure was repeated to overcoat additional layers of gel. The final dry thickness of gel-coating was about 60 μm.
The gelatin coatings were dried in air while being chemically cross-linked by BVSM. The dried and cross-linked samples were then soaked in distilled water for 12 hours. Soaking each sample in distilled water may remove the DTPA[Gd(III)] that was not physically or chemically constrained by the cross-linked network of gelatin overcoat. Because the DTPA[Gd(III)] complexes were not chemically linked to the gelatin chains, most of them would be expected to diffuse out of the coating when soaked in water, whereas some of DTPA[Gd(III)] may be confined by the crystal domains in gelatin or by hydrogen bonding between gelatin chains and DTPA. In any event, after the soaking, the gelatin coating was dried again in air before MRI test.
The MR visibility of the samples prepared as outlined above, was tested in two media: saline and yogurt. […]

[2] = Diffusion of a fluorescent probe in swollen gelatin gel by FRAP; type: physicochemical; conditions: coating thickness 60 μm, diffusion coefficient 9×10-12 m2s-1
Source text: To assess the stability of DTPA[Gd(III)] in the gelatin coating, the diffusion of a fluorescence probe in gelatin was studied by the technique of fluorescence recovery after photobleaching (FRAP). The instrument and data analysis scheme are described in Kim, S. H. and Yu, H., J. Phys. Chem. 1992, 96, 4034, which is hereby fully incorporated by reference. Fluorescein was used as the fluorescence probe due, in part, to its molecular size being roughly the same as that of DTPA[Gd(III)]. The focus of the study was to examine the possible retardation effects of gelatin concentration and cross-link density on the diffusion, which was determined at room temperature, i.e., below the gel point of gelatin. The diffusion of fluorescein probe slows down with the increase of gelatin concentration. The diffusion coefficient decreases from 1.5×10-10 to 9×10-12 […]-1 when the concentration of gelatin increases from 9% to 40%. […] Accordingly, the probe diffusion is more likely controlled by the concentration of gelatin rather than the cross-link density. On the other hand, the cross-link density may determine the swelling ratio of gelatin, i.e., the concentration of gelatin in aqueous solution. […]

SMILES	retention of complex in gelatin gel after soaking [1]	time to diffuse out of the gelatin coating [2]
O=C([O-])CN(CCN(CC(=O)[O-])CC(=O)O)CCN(CC(=O)[O-])CC(=O)O.[Gd+3] [DTPA[Gd(III)], gadolinium-diethylene triamine pentaacetic acid]	some fraction of DTPA[Gd(III)] remained in the gel	–
O=C(O)CN(CCN(CC(=O)O)CC(=O)O)CCN(CC(=O)O)CC(=O)O [DTPA, diethylenetriaminepentaacetic acid]	–	about 67 seconds

From US8532742B2, “System and method for simultaneous 3DPR device tracking and imaging under MR-guidance for therapeutic endovascular interventions” (Wisconsin Alumni Research Foundation, priority 2006, dated 2013)
